Calls of active or inactive are those of the source. The rule behind the calls is not given here.
Assays:
Protein O-GlcNAcase = molecular target: T1, Protein O-GlcNAcase (Homo sapiens, UniProt O60502); experiment: Inhibition of human O-GlcNAcase
T1 sequence (O60502 whole entry): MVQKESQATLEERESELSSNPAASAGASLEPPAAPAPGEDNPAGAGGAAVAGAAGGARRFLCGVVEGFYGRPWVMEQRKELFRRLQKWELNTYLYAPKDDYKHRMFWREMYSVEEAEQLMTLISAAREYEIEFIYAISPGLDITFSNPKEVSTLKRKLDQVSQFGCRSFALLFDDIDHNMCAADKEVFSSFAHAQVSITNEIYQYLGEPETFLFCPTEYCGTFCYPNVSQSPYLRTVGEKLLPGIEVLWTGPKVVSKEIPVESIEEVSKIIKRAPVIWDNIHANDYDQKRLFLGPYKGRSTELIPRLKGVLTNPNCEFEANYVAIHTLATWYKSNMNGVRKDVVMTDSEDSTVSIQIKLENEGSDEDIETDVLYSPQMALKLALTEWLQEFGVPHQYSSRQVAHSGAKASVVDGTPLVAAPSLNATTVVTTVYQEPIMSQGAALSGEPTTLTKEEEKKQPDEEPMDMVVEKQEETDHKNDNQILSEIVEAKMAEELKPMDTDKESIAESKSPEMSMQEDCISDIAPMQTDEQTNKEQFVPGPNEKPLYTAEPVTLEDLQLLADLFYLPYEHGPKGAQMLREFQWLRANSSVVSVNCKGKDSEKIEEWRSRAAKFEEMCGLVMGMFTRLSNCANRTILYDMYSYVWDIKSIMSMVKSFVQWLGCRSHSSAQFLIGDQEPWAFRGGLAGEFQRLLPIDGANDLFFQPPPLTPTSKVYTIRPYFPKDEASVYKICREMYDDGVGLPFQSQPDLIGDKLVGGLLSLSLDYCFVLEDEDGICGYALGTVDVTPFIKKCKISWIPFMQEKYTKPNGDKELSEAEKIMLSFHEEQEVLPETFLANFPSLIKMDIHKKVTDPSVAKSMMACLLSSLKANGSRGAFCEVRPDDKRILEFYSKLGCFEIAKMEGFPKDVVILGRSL

Homo sapiens = organism: Homo sapiens; experiment: Selectivity for human O-GlcNAcase over human lysosomal beta-hexosaminidase
Saccharomyces cerevisiae = experiment: Inhibition of Saccharomyces cerevisiae alpha-glucosidase
[1] = molecular target: T2, Beta-hexosaminidase (Vibrio cholerae serotype O1 (strain ATCC 39315 / El Tor Inaba N16961)) (UniProt Q9KU37); experiment: Inhibition of Vibrio cholerae glycoside hydrolase NagZ
T2 sequence (whole entry): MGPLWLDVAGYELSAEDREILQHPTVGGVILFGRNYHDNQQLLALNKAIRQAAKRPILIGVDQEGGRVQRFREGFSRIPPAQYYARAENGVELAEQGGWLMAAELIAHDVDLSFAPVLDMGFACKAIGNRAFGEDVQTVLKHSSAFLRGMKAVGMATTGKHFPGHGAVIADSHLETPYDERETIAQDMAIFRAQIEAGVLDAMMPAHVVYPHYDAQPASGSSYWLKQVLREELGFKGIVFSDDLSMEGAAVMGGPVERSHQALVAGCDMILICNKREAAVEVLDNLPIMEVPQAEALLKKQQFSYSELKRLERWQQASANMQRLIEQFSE

[2] = molecular target: Beta-galactosidase (Kluyveromyces lactis) (UniProt P00723); experiment: Inhibition of Kluyveromyces lactis glycoside hydrolase beta-galactosidase
[3] = Inhibition of human lysosomal beta-hexosaminidase
Rattus norvegicus [4] = experiment: Increase in O-GlcNAc level in Sprague-Dawley rat brain pyramidal cell layer of CA1 region at 200 mg/kg, po by […]; type: functional, organism-based; set-up: dose 200 mg/kg
Canavalia ensiformis = experiment: Inhibition of Canavalia ensiformis alpha-mannosidase
[5] = molecular target: T3, Alpha-galactosidase (Thermotoga maritima) (UniProt G4FEF4); experiment: Inhibition of Thermotoga maritima alpha-galactosidase
T3 sequence (whole entry): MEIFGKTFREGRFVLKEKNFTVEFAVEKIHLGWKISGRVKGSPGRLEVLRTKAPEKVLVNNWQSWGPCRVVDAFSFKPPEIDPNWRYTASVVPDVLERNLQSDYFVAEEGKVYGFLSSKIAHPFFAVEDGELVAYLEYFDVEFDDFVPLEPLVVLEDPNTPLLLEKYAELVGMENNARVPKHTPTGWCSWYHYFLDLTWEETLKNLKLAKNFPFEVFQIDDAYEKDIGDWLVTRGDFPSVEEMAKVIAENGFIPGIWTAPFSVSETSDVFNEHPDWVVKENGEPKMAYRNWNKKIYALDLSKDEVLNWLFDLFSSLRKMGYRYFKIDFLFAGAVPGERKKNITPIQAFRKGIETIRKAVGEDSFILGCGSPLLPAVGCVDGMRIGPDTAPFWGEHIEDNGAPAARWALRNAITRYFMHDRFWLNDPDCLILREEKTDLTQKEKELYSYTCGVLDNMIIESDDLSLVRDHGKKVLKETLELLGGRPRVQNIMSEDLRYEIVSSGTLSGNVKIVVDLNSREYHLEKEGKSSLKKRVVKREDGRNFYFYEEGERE

PC-12 [6] = experiment: Induction of O-GlcNAc level in NGF-differentiated rat PC12 cells after 24 hrs by Western blot analysis; type: functional, cell-based
PC-12 [7] = experiment: Induction of O-GlcNAc level in NGF-differentiated rat PC12 cells after 24 hrs by densitometric analysis; type: functional, cell-based; settings: PC-12, 24 h
PC-12 [8] = experiment: Induction of O-GlcNAc level in NGF-differentiated rat PC12 cells at >25 uM by Western blot analysis; type: functional, cell-based; settings: TDE = time-dependent effect
Rattus norvegicus [9] = experiment: Induction of O-GlcNAc level in rat at 50 mg/kg, iv by Western blot analysis; type: functional, organism-based; set-up: dose 50 mg/kg; settings: TDE = time-dependent effect
[10] = Inhibition of beta-hexosaminidase
PC-12 [11] = experiment: Reduction in tau protein phosphorylation at Ser396 position in NGF-differentiated rat PC12 cells after 4 hrs by Western blot analysis relative to control; type: functional, cell-based
Rattus norvegicus [12] = experiment: Reduction in tau protein phosphorylation at Ser396 in Sprague-Dawley rat brain CA1 region at 200 mg/kg, po by […]; type: functional, organism-based; set-up: dose 200 mg/kg
PC-12 [13] = experiment: […] in pSer396 immunoreactivity in NGF-differentiated rat PC12 cells after 4 hrs by Western blot analysis; type: functional, cell-based; settings: TDE = time-dependent effect
Rattus norvegicus [14] = experiment: Increase in O-GlcNAc immunoreactivity in Sprague-Dawley rat brain CA1 region at 200 mg/kg, po by […]; type: functional, organism-based; set-up: dose 200 mg/kg
Rattus norvegicus [15] = experiment: Reduction in tau protein phosphorylation at Thr231 in Sprague-Dawley rat brain CA1 region at 200 mg/kg, po by […]; type: functional, organism-based; set-up: dose 200 mg/kg
Rattus norvegicus [16] = experiment: Increase in O-GlcNAc immunoreactivity in Sprague-Dawley rat brain nucleus at 200 mg/kg, po by […]; type: functional, organism-based; set-up: dose 200 mg/kg
Rattus norvegicus [17] = experiment: Increase in O-GlcNAc immunoreactivity in Sprague-Dawley rat brain perikaryon at 200 mg/kg, po by […]; type: functional, organism-based; set-up: dose 200 mg/kg
Rattus norvegicus [18] = experiment: Decrease in pSer396 immunoreactivity in Sprague-Dawley rat brain epitops of CA1 region at 200 mg/kg, po by […]; type: functional, organism-based; set-up: dose 200 mg/kg
Rattus norvegicus [19] = experiment: Decrease in pThr231 immunoreactivity in Sprague-Dawley rat brain epitops of CA1 region at 200 mg/kg, po by […]; type: functional, organism-based; set-up: dose 200 mg/kg
Rattus norvegicus [20] = experiment: Decrease in pSer396 immunoreactivity in Sprague-Dawley rat brain pyramidal cell layer of CA1 region at 200 mg/kg, po by […]; type: functional, organism-based; set-up: dose 200 mg/kg
Rattus norvegicus [21] = experiment: Decrease in pThr231 immunoreactivity in Sprague-Dawley rat brain pyramidal cell layer of CA1 region at 200 mg/kg, po by […]; type: functional, organism-based; set-up: dose 200 mg/kg

Chain of Beta-galactosidase (Kluyveromyces lactis) (P00723 whole entry): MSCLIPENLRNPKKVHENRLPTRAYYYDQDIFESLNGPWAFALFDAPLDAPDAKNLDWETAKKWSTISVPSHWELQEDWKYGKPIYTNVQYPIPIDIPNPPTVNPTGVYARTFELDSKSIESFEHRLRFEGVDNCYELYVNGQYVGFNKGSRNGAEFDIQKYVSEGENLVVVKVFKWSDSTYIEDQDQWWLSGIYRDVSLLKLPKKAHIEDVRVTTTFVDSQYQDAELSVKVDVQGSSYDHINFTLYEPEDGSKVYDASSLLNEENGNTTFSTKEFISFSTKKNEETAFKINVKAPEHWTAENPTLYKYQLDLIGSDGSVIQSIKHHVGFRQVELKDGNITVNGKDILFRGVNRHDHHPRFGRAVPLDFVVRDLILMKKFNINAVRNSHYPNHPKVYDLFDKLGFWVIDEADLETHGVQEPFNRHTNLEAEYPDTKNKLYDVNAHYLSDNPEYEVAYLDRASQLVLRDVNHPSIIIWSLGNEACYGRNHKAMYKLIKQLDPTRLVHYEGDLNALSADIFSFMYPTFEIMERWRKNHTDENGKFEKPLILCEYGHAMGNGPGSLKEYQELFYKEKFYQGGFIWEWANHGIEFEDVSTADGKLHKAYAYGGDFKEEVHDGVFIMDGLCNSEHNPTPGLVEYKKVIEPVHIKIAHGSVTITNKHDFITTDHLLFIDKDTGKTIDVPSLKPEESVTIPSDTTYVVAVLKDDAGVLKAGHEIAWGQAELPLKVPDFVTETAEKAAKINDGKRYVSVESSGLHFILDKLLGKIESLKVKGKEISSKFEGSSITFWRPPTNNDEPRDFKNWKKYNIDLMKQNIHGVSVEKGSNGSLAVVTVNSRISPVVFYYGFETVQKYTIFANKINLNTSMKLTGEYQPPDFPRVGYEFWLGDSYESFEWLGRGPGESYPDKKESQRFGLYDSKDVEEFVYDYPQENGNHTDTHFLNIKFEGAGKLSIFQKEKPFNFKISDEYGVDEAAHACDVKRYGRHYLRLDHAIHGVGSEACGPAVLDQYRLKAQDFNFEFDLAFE

CC(=O)N[C@H]1c2nc(CC(=O)O)cn2[C@H](CO)[C@@H](O)[C@@H]1O
Ki (Protein O-GlcNAcase): 420 nM

CCCC1=N[C@@H]2[C@@H](O)[C@H](O)[C@@H](CO)O[C@@H]2S1
fold change (FC) (Homo sapiens): 800 | Ki (Protein O-GlcNAcase): 600 nM

CCNC1=N[C@@H]2[C@@H](O)[C@H](O)[C@@H](CO)O[C@@H]2S1
inhibition (Saccharomyces cerevisiae): inactive | inhibition [1]: inactive | inhibition [2]: inactive | Ki [3]: 750000 nM | Activity (Rattus norvegicus [4]): Active | inhibition (Canavalia ensiformis): inactive | inhibition [5]: inactive | Activity (PC-12 [6]): Dose-dependent effect | EC50 (PC-12 [7]): 30 nM | Activity (PC-12 [8]): tde | Activity (Rattus norvegicus [9]): tde | inhibition [10]: inactive | Activity (PC-12 [11]): Dose-dependent effect | Activity (Rattus norvegicus [12]): Active | Activity (PC-12 [13]): tde | Activity (Rattus norvegicus [14]): Active | Activity (Rattus norvegicus [15]): Active | Activity (Rattus norvegicus [16]): Active | Activity (Rattus norvegicus [17]): Active | Activity (Rattus norvegicus [18]): Active | Activity (Rattus norvegicus [19]): Active | Activity (Rattus norvegicus [20]): Active | Activity (Rattus norvegicus [21]): Active
